Data on 36 molecules can be found in patent US20230398130A1, “METHODS AND COMPOSITIONS FOR DIFFERENTIATING STEM CELLS” (Massachusetts Institute of Technology, priority 2020, published 2023).

In the assay the test system is ISC-enriched organoids. As to the kind of experiment: Primary screen, 384-well 2.5-D organoid differentiation (ENR+CD, 6 days, Target Selective Inhibitor Library, vs whole-plate median): ATP (CellTiter-Glo 3D, CTG). Conditions: standard z score of FC. On the technique in general: In ATP-based viability assays light output follows the ATP content of the culture.

Counter-ions that a name gives are not always drawn.

`Cc1ccccc1C(C(=O)NC1CCCCC1)N(C(=O)Cn1ccnc1C)c1cccc(F)c1` (stereo not shown) [AGI-5198]: the Z.CTG amounted to 0.738 (primary screen, dose 0.08 uM); 0.368 (primary screen, dose 0.40 uM); 0.671 (primary screen, dose 2.00 uM); 0.802 (primary screen, dose 10.00 uM).

Take `CC(=O)Nc1nc2c(Oc3cc(-c4ccc(C(F)(F)F)cc4)ncn3)cccc2s1` [AMG-517]: the Z.CTG came to 0.385 (primary screen, dose 0.08 uM); 0.269 (primary screen, dose 0.40 uM); 0.268 (primary screen, dose 2.00 uM); 0.135 (primary screen, dose 10.00 uM).

As for `COc1cc(N2CCC(N3CCN(C)CC3)CC2)ccc1Nc1ncc(Cl)c(Nc2ccccc2P(C)(C)=O)n1` [AP26113], the Z.CTG is given as −0.130 (primary screen, dose 0.08 uM); 0.145 (primary screen, dose 0.40 uM); −1.333 (primary screen, dose 2.00 uM); −4.012 (primary screen, dose 10.00 uM).

Take `NC(=O)c1ncn([C@@H]2O[C@H](CO)[C@@H](O)[C@H]2O)c1N` [Acadesine]: the Z.CTG is on record as 0.225 (primary screen, dose 0.08 uM); 0.413 (primary screen, dose 0.40 uM); −0.012 (primary screen, dose 2.00 uM); 0.182 (primary screen, dose 10.00 uM).

Consider `COc1ccc2cccc(CCNC(C)=O)c2c1` [Agomelatine], for which the Z.CTG runs as follows: (primary screen, dose 0.08 uM) 0.252; (primary screen, dose 0.40 uM) 0.193; (primary screen, dose 2.00 uM) −0.472; (primary screen, dose 10.00 uM) 0.056.

With `Oc1ncnc2[nH]ncc12` [Allopurinol], the Z.CTG (primary screen, dose 0.08 uM) stood at 0.506; the Z.CTG (primary screen, dose 0.40 uM) was −0.234; the Z.CTG (primary screen, dose 2.00 uM) is −0.387; the Z.CTG (primary screen, dose 10.00 uM) is −1.085.

Regarding `CCOC(=O)[C@H]1O[C@@H]1C(=O)N[C@@H](CC(C)C)C(=O)NCCC(C)C` [Aloxistatin], the Z.CTG reads like this: (primary screen, dose 0.08 uM) −0.015; (primary screen, dose 0.40 uM) −0.014; (primary screen, dose 2.00 uM) −0.308; (primary screen, dose 10.00 uM) −0.511.

Turning to `CCOC(=O)C1=C(COCCN)NC(C)=C(C(=O)OC)C1c1ccccc1Cl` (stereo not shown) [Amlodipine], the Z.CTG (primary screen, dose 0.08 uM) was −0.837; the Z.CTG (primary screen, dose 0.40 uM) is listed as −0.866; the Z.CTG (primary screen, dose 2.00 uM) is −0.888; the Z.CTG (primary screen, dose 10.00 uM) is reported as −1.006.

For `COc1ccc(C(=O)N2CCCC2=O)cc1` [Aniracetam], the Z.CTG by setting is: (primary screen, dose 0.08 uM) −0.211; (primary screen, dose 0.40 uM) 0.267; (primary screen, dose 2.00 uM) 0.130; (primary screen, dose 10.00 uM) 0.045.

In the case of `N#CC1(c2ccc(NC(=O)c3cccnc3NCc3ccncc3)cc2)CCCC1` [Apatinib], the Z.CTG came out at 0.532 (primary screen, dose 0.08 uM); 0.722 (primary screen, dose 0.40 uM); 0.645 (primary screen, dose 2.00 uM); 0.520 (primary screen, dose 10.00 uM).

With `O=c1cc(-c2ccc(O)cc2)oc2cc(O)cc(O)c12` [Apigenin], the Z.CTG by setting is: (primary screen, dose 0.08 uM) 0.588; (primary screen, dose 0.40 uM) 0.510; (primary screen, dose 2.00 uM) 0.753; (primary screen, dose 10.00 uM) 0.063.

Consider `COc1ccc(-n2nc(C(N)=O)c3c2C(=O)N(c2ccc(N4CCCCC4=O)cc2)CC3)cc1` [Apixaban], for which the Z.CTG was −0.212 (primary screen, dose 0.08 uM); 0.266 (primary screen, dose 0.40 uM); −0.144 (primary screen, dose 2.00 uM); −0.185 (primary screen, dose 10.00 uM).

Molecule `C[C@@H](O[C@H]1OCCN(Cc2n[nH]c(=O)[nH]2)[C@H]1c1ccc(F)cc1)c1cc(C(F)(F)F)cc(C(F)(F)F)c1` [Aprepitant] displayed a Z.CTG (primary screen, dose 0.08 uM) of 0.747; a Z.CTG (primary screen, dose 0.40 uM) of 0.962; a Z.CTG (primary screen, dose 2.00 uM) of 0.346; a Z.CTG (primary screen, dose 10.00 uM) of 0.121.

For `CC[C@@H]1C(=O)N(C)c2cnc(Nc3ccc(C(=O)NC4CCN(C)CC4)cc3OC)nc2N1C1CCCC1` [BI 2536], the Z.CTG reads like this: (primary screen, dose 0.08 uM) 0.069; (primary screen, dose 0.40 uM) −1.275; (primary screen, dose 2.00 uM) −1.220; (primary screen, dose 10.00 uM) −2.455.

As to `Cn1c(N2CCCCS2(=O)=O)nc(C(=O)NCc2ccc(F)cc2)c(O)c1=O` [BMS-707035], the Z.CTG reads like this: (primary screen, dose 0.08 uM) 0.759; (primary screen, dose 0.40 uM) 0.568; (primary screen, dose 2.00 uM) 0.667; (primary screen, dose 10.00 uM) 0.330.

Regarding `Cc1c(-c2ccc(O)cc2)n(Cc2ccc(OCCN3CCCCCC3)cc2)c2ccc(O)cc12` [Bazedoxifene HCl], the Z.CTG was 1.009 (primary screen, dose 0.08 uM); 0.873 (primary screen, dose 0.40 uM); −1.862 (primary screen, dose 2.00 uM); −2.741 (primary screen, dose 10.00 uM).

`COc1c(O)cc2c(c1O)[C@@H]1O[C@H](CO)[C@@H](O)[C@H](O)[C@H]1OC2=O` [Bergenin]: the Z.CTG was 0.687 (primary screen, dose 0.08 uM); 0.585 (primary screen, dose 0.40 uM); 0.491 (primary screen, dose 2.00 uM); 0.821 (primary screen, dose 10.00 uM).

For the molecule `CC[C@H](NC(=O)[C@H](C)NC)C(=O)N1C[C@@H](O)C[C@H]1Cc1c(-c2[nH]c3cc(F)ccc3c2C[C@@H]2C[C@H](O)CN2C(=O)[C@H](CC)NC(=O)[C@H](C)NC)[nH]c2cc(F)ccc12` [Birinapant], the Z.CTG is listed as −0.615 (primary screen, dose 0.08 uM); 0.226 (primary screen, dose 0.40 uM); 0.542 (primary screen, dose 2.00 uM); 0.293 (primary screen, dose 10.00 uM).

As for `CC(C)NCC(O)COc1ccc(COCCOC(C)C)cc1` (stereo not shown) [Bisoprolol fumarate], the Z.CTG is, setting by setting: (primary screen, dose 0.08 uM) −0.249; (primary screen, dose 0.40 uM) −0.136; (primary screen, dose 2.00 uM) −0.048; (primary screen, dose 10.00 uM) 0.139.

In the case of `COc1ccccc1Oc1c(NS(=O)(=O)c2ccc(C(C)(C)C)cc2)nc(-c2ncccn2)nc1OCCO` [Bosentan Hydrate], the Z.CTG was 0.487 (primary screen, dose 0.08 uM); 0.495 (primary screen, dose 0.40 uM); 0.288 (primary screen, dose 2.00 uM); 0.204 (primary screen, dose 10.00 uM).

As for `CCN[C@H]1CN(CCCOC)S(=O)(=O)c2sc(S(N)(=O)=O)cc21` [Brinzolamide], the Z.CTG reads like this: (primary screen, dose 0.08 uM) −0.017; (primary screen, dose 2.00 uM) 0.282.

Turning to `CCCCN1CCCCC1C(=O)Nc1c(C)cccc1C` (stereo not shown) [Bupivacaine HCl], the Z.CTG was −0.870 (Dose 10.00 uM); −0.008 (primary screen, dose 0.08 uM); −0.517 (primary screen, dose 0.40 uM); −0.717 (primary screen, dose 2.00 uM).

Regarding `CCNC(=O)[C@H]1O[C@@H](n2cnc3c(N)nc(NCCc4ccc(CCC(=O)O)cc4)nc32)[C@H](O)[C@@H]1O` [CGS 21680 HCl], the Z.CTG (Dose 0.08 uM) worked out at 0.724, the Z.CTG (Dose 0.40 uM) was determined as 1.049, the Z.CTG (Dose 2.00 uM) was determined as 0.799 and the Z.CTG (Dose 10.00 uM) is listed as −3.328.

In the case of `COCCOc1ccc2c(c1)ncn2-c1ccc2cccc(N3CCC(N)CC3)c2n1` [CP-673451], the Z.CTG runs as follows: (Dose 0.08 uM) 0.166; (Dose 0.40 uM) 0.445; (Dose 2.00 uM) 0.018; (Dose 10.00 uM) −0.616.

Regarding `O=C(/C=C/c1ccc(O)c(O)c1)OCCc1ccccc1` [Caffeic Acid Phenethyl Ester], the Z.CTG (Dose 0.08 uM) is 0.627, the Z.CTG (Dose 0.40 uM) was −0.026, the Z.CTG (Dose 2.00 uM) is −0.152 and the Z.CTG (Dose 10.00 uM) is listed as −1.221.

Take `C[C@H](CS)C(=O)N1CCC[C@H]1C(=O)O` [Captopril]: the Z.CTG runs as follows: (Dose 0.08 uM) −0.134; (Dose 0.40 uM) 0.257; (Dose 2.00 uM) 0.294; (Dose 10.00 uM) 0.255.

In the case of `COc1ccccc1OCCNCC(O)COc1cccc2[nH]c3ccccc3c12` (stereo not shown) [Carvedilol], the Z.CTG is, setting by setting: (Dose 0.08 uM) 0.136; (Dose 0.40 uM) −0.034; (Dose 2.00 uM) −0.360; (Dose 10.00 uM) −0.577.

On to `Cc1ccc(-c2cc(C(F)(F)F)nn2-c2ccc(S(N)(=O)=O)cc2)cc1` [Celecoxib], for which the Z.CTG is listed as −0.082 (Dose 0.08 uM), −0.714 (Dose 0.40 uM), −0.282 (Dose 2.00 uM) and −0.306 (Dose 10.00 uM).

The molecule `COc1ccc([C@]2(C#N)CC[C@@H](C(=O)O)CC2)cc1OC1CCCC1` [Cilomilast] returned a Z.CTG (Dose 0.08 uM) of −0.799, a Z.CTG (Dose 0.40 uM) of −0.807, a Z.CTG (Dose 2.00 uM) of −0.562 and a Z.CTG (Dose 10.00 uM) of −0.458.

Consider `C[C@@H](NCCCc1cccc(C(F)(F)F)c1)c1cccc2ccccc12` [Cinacalcet HCl], for which the Z.CTG is given as −1.061 (Dose 0.08 uM), −0.712 (Dose 0.40 uM), −0.028 (Dose 2.00 uM) and −1.076 (Dose 10.00 uM).

`C=C1C(=O)O[C@@H]2/C=C(\C)CC/C=C(\C)CC[C@@H]12` [Costunolide]: the Z.CTG is listed as −0.070 (Dose 0.08 uM), 0.288 (Dose 0.40 uM), 0.120 (Dose 2.00 uM) and 0.019 (Dose 10.00 uM).

On to `CC(=O)O[C@]1(C(C)=O)CC[C@H]2[C@@H]3C=C(Cl)C4=CC(=O)[C@@H]5C[C@@H]5[C@]4(C)[C@H]3CC[C@@]21C` [Cyproterone Acetate], for which the Z.CTG is recorded as −0.263 (Dose 0.08 uM), 0.122 (Dose 0.40 uM), −0.341 (Dose 2.00 uM) and −0.414 (Dose 10.00 uM).

`COc1cc2nc(N3CCN(C(=O)C4COc5ccccc5O4)CC3)nc(N)c2cc1OC` (stereo not shown) [Doxazosin Mesylate]: the Z.CTG is recorded as 0.171 (Dose 0.08 uM), −0.037 (Dose 0.40 uM), 0.349 (Dose 2.00 uM) and 0.179 (Dose 10.00 uM).

Take `O=C(N/N=C/c1ccc(O)c(O)c1)c1cc2ccccc2cc1O` [Dynasore]: the Z.CTG is recorded as −0.592 (Dose 0.08 uM), −0.604 (Dose 0.40 uM), −0.364 (Dose 2.00 uM) and −0.026 (Dose 10.00 uM).

Take `CCN(c1cc(-c2ccc(CN3CCOCC3)cc2)cc(C(=O)NCc2c(C)cc(C)[nH]c2=O)c1C)C1CCOCC1` [EPZ-6438]: the Z.CTG is, setting by setting: (Dose 0.08 uM) 0.107; (Dose 0.40 uM) 0.178; (Dose 2.00 uM) −0.163; (Dose 10.00 uM) 0.802.

As to `CCCCCCCCCCCC1=C(O)C(=O)C=C(O)C1=O` [Embelin], the Z.CTG was −0.770 (Dose 0.08 uM), −1.728 (Dose 0.40 uM), −0.776 (Dose 2.00 uM) and −1.720 (Dose 10.00 uM).
